Source: patent US20070099879A1 (priority 2005, published 2007)
“Also recorded” adds a separate entry of the source.

Columns and labels:
[1] = tested on: retinal neovascularization; assay: Mouse oxygen-induced ischemic retinopathy (OIR) model, retinal neovascularization; type: in vivo; conditions: for inhibition of neovascularization: P17 mice
Protocol: All experimental procedures involving animals were performed according to the ARVO Statement for the Use of Animals in Ophthalmic and Vision Research. […] In this model, 7-day-old (P7) pups (8-10 pups) and their mother were placed in an airtight incubator and exposed to an atmosphere of 75±0.5% oxygen (hyperoxia) for 5 days. Incubator temperature was maintained at 23±2° C., and oxygen was continuously monitored with a PROOX model 110 oxygen controller (Reming Bioinstruments Co., Redfield, N.Y.). Mice were then brought to room air for 5 days. Maximum retinal neovascularization occurred from P12 to P17. […] The other half of the littermates was injected with 0.1 ml of mineral oil. Generally one eye from each mouse was used for histochemical analysis and the other eye for histological evaluation as outlined below. These experiments were repeated at least 3 times for each dose.
Briefly, P17 mouse eyes were enucleated and briefly fixed in 4% paraformaldehyde in phosphate buffered saline (PBS) (10 min on ice). The paraformaldehyde fixed eyes were then fixed in 70% ethanol for at least 24 h at −20° C. Retinas were dissected in PBS and then washed with PBS 3 times, 10 min each. Following incubation in blocking buffer (50% fetal calf serum, 20% normal goat serum (NGS) in PBS) for 2h, the retinas were incubated with rabbit anti-mouse collagen IV (Chemicon, diluted 1:500 in PBS containing 20% fetal calf serum, 20% normal goat serum) at 4° C. overnight. Retinas were then washed 3 times with PBS, 10 min each, incubated with a secondary antibody Alexa 594-labeled goat-anti-rabbit (Invitrogen, Carlsbad, Calif.), at 1:500 dilution prepared in PBS containing 20% FCS, 20% NGS for 2 h at room temperature, washed 4 times with PBS (30 min each), and mounted on a slide with PBS/glycerol (2vol/1vol). Retinas were viewed by fluorescence microscopy, and images were captured in digital format using a Zeiss microscope (Carl Zeiss, Chester, Va.).
Quantification of retinal neovascularization on P17 was performed by counting vascular cell nuclei anterior to the […] (Wang S, et al., Attenuation of Retinal Vascular Development and Neovascularization during Oxygen-Induced Ischemic Retinopathy in Bcl-2 -/- Mice. Developmental Biol. 2005;279:205-219). Briefly, mice eyes were enucleated, fixed in formalin for 24 h, and embedded in paraffin. Serial sections (6 μm), each separated by at least 40 μm, were taken from around the region of the optic nerve. The hematoxylin- and PAS-stained sections were examined in masked fashion, by two independent observers without the knowledge of the samples identity, the presence of neovascular tufts projecting into the vitreous from the retina. […]

VEGF = assay: Western blot of VEGF in whole eye extracts of P15 mice during OIR; type: in vivo, mouse
Protocol: Vascular endothelial growth factor (VEGF) levels were determined by Western blotting of whole eye extracts prepared from P15 mice during OIR (5 days of hyperoxia and 3 days of normoxia) when maximum levels of VEGF were expressed (Wang S, et al. Attenuation of Retinal Vascular Development and Neovascularization during Oxygen-Induced Ischemic Retinopathy in Bcl-2 -/- Mice. Developmental Biol. 2005;279:205-219). Mice were euthanized by CO2 inhalation, then eyes from 2 or 3 mice dissected, homogenized in 0.2 ml of RIPA buffer, 10 mM HEPES pH 7.6, 142.5 mM KCl, 1% NP-40, and protease inhibitor cocktail, (Roche Applied Science, Indianapolis, Ind.), sonicated briefly, and incubated at 4° C. for 20 min. […] Supernatants were transferred to a clean tube, and protein concentrations were determined using the DC Protein Assay (Bio-Rad Laboratories, Hercules, Calif., Cat. No. 500-011 1). Approximately 20 μg of protein from the centrifuged homogenates were analyzed by SDS-PAGE (4-20% Tris-Glycin gel, Invitrogen, Carlsbad, Calif.) under reducing conditions and transferred to a nitrocellulose membrane. […] For quantitative assessments, the band intensities relative to loading controls were determined by scanning the blots using the Molecular Dynamics Storm 860 Scanner and Image Quant Software (Amersham Biosciences, Piscataway, N.J.).

[2] = Toxic effect assessment: body weight of mice during OIR; conditions: mouse, in vivo
Description: In the OIR studies, all pups had similar body weight prior to initiation of the experiment (P12) and after exposure to high oxygen (P17).

[3] = tested on: retinal endothelial cells; assay: Retinal endothelial cell proliferation assay (CellTiter 96 AQueous); type: cell-based, mouse; conditions: for Relative Survival: relative to solvent control
Protocol: Primary mouse retinal endothelial cell (REC) cultures were prepared and maintained as described previously (Su X, et al., Isolation and characterization of murine retinal endothelial cells. Mol Vision. 2003;9:171-178). Briefly, REC were isolated from wild type or transgenic-immortomouse by collagenase digestion of retina and affinity purification using magnetic beads coated with platelet/endothelial cell adhesion molecule-1 (anti-PECAM-1). The bound cells were plated on fibronectin-coated wells and expanded. The REC were characterized for expression and localization of endothelial cell markers by fluorescence-activated cell sorting (FACS) analysis and indirect immuno fluorescence staining. The ability of these cells to form capillary like networks was assessed on matrigel™. For cell proliferation assays, retinal endothelial cell (10,000) were plated in triplicate in 96-well plates and incubated overnight. […] The degree of proliferation was assessed using the nonradioactive cell proliferation assay (CellTiter 96® AQueous; Promega, Madison, Wis.) as recommended by the supplier.

retinal EC [4] = assay: Retinal EC wound migration assay; type: cell-based, mouse; conditions: 10 μM calcitriol, 0, 24 and 48 hours
Protocol: (§1) Retinal EC migration was determined using both wound migration and transwell assays. […] Wound closure was monitored by phase microscopy, and digital images were obtained at different time points used for quantitative assessment of migration. For transwell migration, wells (8 μm pore size, 6.5 mm membrane; Costar) were coated with Matrigel™ (200 μg/ml) or fibronectin (2 μg/ml) in PBS on the bottom side at 4° C. overnight. The next day, inserts were rinsed with PBS, blocked in PBS containing 2% BSA for 1 h at room temperature, and washed with PBS. Cells were removed by trypsin-EDTA, counted, and resuspended at 1×10^6 cells/ml in serum-free medium. Inserts were placed in 24-well dishes (Costar) containing 0.5 ml of serum-free medium and 0. 1 ml of cell suspension was then added to the top of the insert. Cells were allowed to migrate through the filter for 3 h in a tissue culture incubator. After incubation, the cells on the top of the filter were scraped off using a cotton swab; the membrane was then fixed in 4% paraformaldehyde and stained with hematoxylin and eosin. The inserts were then mounted on a slide cell side up, and the number of cells which migrated to the bottom of the filter was determined by counting 10 high power fields at X200 magnification.

retinal EC [5] = assay: Retinal EC transwell migration assay; type: cell-based, mouse; conditions: 10 μM calcitriol, 3 h
Protocol: as §1, with “Cells were allowed to migrate through the filter for 3 h in a tissue culture incubator. After incubation, the cells on the top of the filter were scraped off using a cotton swab; the membrane was then fixed in 4% paraformaldehyde and stained with hematoxylin and eosin.” left out
FIG. 5C illustrate is a quantification of the transwell assay as described above. […] Cells were removed by trypsin-EDTA, counted, and resuspended at 1×10^6 cells/ml in serum-free medium. […] The inserts were then mounted on a slide cell side up and the number of cells which migrated to the bottom of the filter was determined by counting 10 high power fields at ×200 magnification. […]

[6] = tested on: retinal endothelial cells; assay: Retinal endothelial cell capillary morphogenesis in Matrigel; type: cell-based, mouse; conditions: 10 μM calcitriol, 18 h
Protocol: The ability of the cultured retinal endothelial cells to form capillary like networks was assessed on Matrigel™ (B D Biosciences, San Jose, Calif.). The capillary morphogenesis assays in Matrigel™ were performed as previously described (Su X, et al., Isolation and characterization of murine retinal endothelial cells. Mol Vision. 2003;9:171-178; Rothermel T A, et al., Polyoma virus middle-T-transformed PECAM-1 deficient mouse brain endothelial cells proliferate rapidly in culture and form hemangiomas in mice. J Cell Physiol. 2005;202:230-239). Briefly, 0.5 ml of Matrigel™ was added to a cold 35 mm tissue culture plate and incubated at 37° C. for at least 30 min to allow the Matrigel™ to harden. […] Cultures were monitored for 6-48 h, and images were captured in digital format after 18 h when maximum organization was observed. […] The capillary network formed by control cells began to fall apart at 24-48 h.

retinoblastoma = conditions: 0.05 μg/d, mice; cited from earlier work

## C=C1/C(=C\C=C2/CCC[C@]3(C)[C@@H]([C@H](C)CCCC(C)(C)O)CC[C@@H]23)C[C@@H](O)C[C@@H]1O [calcitriol, 1α,25-dihydroxyvitamin D3]
[1]; 0.025 μg (~5 μg/Kg), n = 4, mean ± SD, P17, control 39.9 ± 6.4, P < 0.001
  MEAN NUMBER OF ENDOTHELIAL NUCLEI: 3.8 ± 2.2 (SD)
[1]; 0.5 μg/Kg calcitriol, vs control
  inhibition of neovascularization: 60%
[1]; 2.5 μg/Kg calcitriol, vs control
  inhibition of neovascularization: 75%
[1]; 5 μg/Kg (0.025 μg) calcitriol i.p. per day P12 to P17, P17 mice, vs control
  inhibition of retinal neovascularization: greater than 90%
VEGF; 0.025 μg (~5 μg/Kg), n = 3, P15 eye extracts, relative to β-catenin, mean ± SD, control 0.39 ± 0.08
  Relative Intensity of Expressed VEGF: 0.37 ± 0.06 (SD)
VEGF; 5 μg/Kg, P15 mice during OIR
  difference in VEGF expression between control and calcitriol-treated eyes: no significant difference
[2]
  Body Weight: 5.04 ± 0.23
  mortality during OIR experiments: None of the experimental animals died
[3]; 0.25 μM calcitriol, 3 days
  Relative Survival: 108%
[3]; 0.50 μM calcitriol, 3 days
  Relative Survival: 111%
[3]; 10.00 μM calcitriol, 3 days
  Relative Survival: 111%
[3]; 50.00 μM calcitriol, 3 days
  Relative Survival: 87%
[3]; 100.00 μM calcitriol, 3 days
  Relative Survival: 12%
[3]; Mus musculus, Endothelial cell, 72 h, read-out: inhibition of retinal endothelial cell proliferation, 100 μM calcitriol, 3 days
  inhibition at 100 µM: 90%
[3]; calcitriol 0-10 μM, 9 days
  effect on retinal endothelial cell proliferation: no effect; also recorded: minimal effects
[3]; calcitriol 50 μM and higher
  effect on retinal endothelial cell proliferation: significant inhibition; also recorded: Significant toxicity
[3]; calcitriol up to 10 μM, 3 days
  effect on retinal endothelial cell proliferation: No significant inhibition
[3]; calcitriol up to 10 μM, 3 days, listed as Calcitriol
  effect on retinal endothelial cell proliferation: no effect
Retinal EC [4]
  retinal EC wound migration vs ethanol control: not significant
Retinal EC [5]
  retinal EC migration through filter coated with Matrigel: no significant effect
Retinal EC [5]; compared to solvent control (not shown)
  retinal EC migration through filters coated with fibronectin: slightly enhanced
[6]
  capillary morphogenesis in Matrigel: completely inhibited; also recorded: completely abolished
[6]; listed as Calcitriol
  capillary morphogenesis in Matrigel: no capillaries are observed
retinoblastoma
  decrease in retinal involvement of retinoblastoma compared to controls: 50%
